In patent US20240383830A1, “NOVEL CANNABIDIOL DERIVATIVE, METHOD FOR PREPARING SAME, AND COMPOSITION FOR COGNITIVE FUNCTION I[…]” (priority 2021, published 2024):
Where two headings read alike, the source gives them in different places.

What was measured:
Type in all cases: biochemical
[1] = target: Acetylcholinesterase (AChE) (Homo sapiens, UniProt P22303); assay: Acetylcholinesterase inhibition efficiency (acetylthiocholine/DTNB absorbance)
Description: (§1) Concentrations of 0, 2, 5, 10, 20, 50, 100, and 200 μM of the synthesized compounds were prepared by dilution in 10% DMSO, 63% phosphate buffer, and 27% tween 80, and 50 μl was dispensed into a 96-well plate. Acetylcholinesterase or butyrylcholinesterase was prepared at 0.5 U/ml, 50 μl was added to a 96-well plate, mixed with the aliquoted compound, and left for 10 minutes. The substrate, acetylthiocholine or butyrylthiocholine, was prepared at 0.4mg/ml, then 50 μl was added to a 96-well plate and left for 20 minutes. Dithionitrobenzoic acid (DTNB) was prepared at 1.2 mg/ml, then 50 μl was added to a 96-well plate and left for 10minutes.

[2] = target: Butyrylcholinesterase (BuChE) (Homo sapiens, UniProt P06276); assay: Butyrylcholinesterase inhibition efficiency (butyrylthiocholine/DTNB absorbance)
Butyrylcholinesterase (BuChE), sequence (P06276 29-602): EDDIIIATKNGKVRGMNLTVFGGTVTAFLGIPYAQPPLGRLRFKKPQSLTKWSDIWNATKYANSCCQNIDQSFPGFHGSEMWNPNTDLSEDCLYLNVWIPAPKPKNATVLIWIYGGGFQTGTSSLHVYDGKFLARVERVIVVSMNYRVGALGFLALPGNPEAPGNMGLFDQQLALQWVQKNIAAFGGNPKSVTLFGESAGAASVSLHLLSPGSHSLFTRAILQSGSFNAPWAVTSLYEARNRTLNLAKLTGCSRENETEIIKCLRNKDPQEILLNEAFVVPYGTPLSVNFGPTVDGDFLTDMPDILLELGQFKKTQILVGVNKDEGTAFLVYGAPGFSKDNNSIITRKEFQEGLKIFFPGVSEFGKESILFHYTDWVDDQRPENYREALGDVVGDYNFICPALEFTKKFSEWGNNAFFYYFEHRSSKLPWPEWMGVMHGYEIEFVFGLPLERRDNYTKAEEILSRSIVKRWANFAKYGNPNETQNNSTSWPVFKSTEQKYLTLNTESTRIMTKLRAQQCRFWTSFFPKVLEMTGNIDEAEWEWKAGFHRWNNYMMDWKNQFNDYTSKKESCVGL
Description: as §1

[3] = target: T1, Monoamine oxidase B (MAO-B) (Homo sapiens, UniProt P27338); assay: Monoamine oxidase B inhibition efficiency (kynuramine fluorescence)
T1 sequence (P27338 1-520): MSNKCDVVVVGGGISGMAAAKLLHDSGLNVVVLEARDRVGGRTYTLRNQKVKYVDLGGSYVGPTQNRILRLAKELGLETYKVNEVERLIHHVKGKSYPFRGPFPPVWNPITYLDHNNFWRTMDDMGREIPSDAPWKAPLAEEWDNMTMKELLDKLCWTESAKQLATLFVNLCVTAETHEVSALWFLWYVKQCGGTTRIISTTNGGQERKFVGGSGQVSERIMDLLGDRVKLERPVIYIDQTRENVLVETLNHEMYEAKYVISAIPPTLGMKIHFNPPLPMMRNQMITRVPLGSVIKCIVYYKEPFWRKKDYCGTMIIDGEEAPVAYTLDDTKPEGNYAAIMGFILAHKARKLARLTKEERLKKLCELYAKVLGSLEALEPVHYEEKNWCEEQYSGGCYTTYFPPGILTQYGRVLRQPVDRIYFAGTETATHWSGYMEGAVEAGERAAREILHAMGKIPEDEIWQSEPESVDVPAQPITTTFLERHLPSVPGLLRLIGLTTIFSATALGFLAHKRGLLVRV
Description: Samples were prepared by dilution with DMSO to give concentrations of 0, 2, 5, 10, 20, 50, 100, and 200 μM of the compound, and 5 μl was dispensed into a 96-well plate. 135 μl of potassium phosphate buffer (0.1 M, 7.4 pH) was dispensed into a 96-well plate. Monoamine oxidase B was prepared at 40 μl/ml, and 50 μl was added to the 96-well plate, mixed with the dispensed compound, and left for 20 minutes. The substrate, kynuramine solution, was prepared at 100 μM, then 10 μl was added to a 96-well plate and left for 10 min. The reaction was stopped by adding 75 μl of NaOH (2N). For the fluorescence blank experiment, potassium phosphate buffer was added instead of monoamine oxidase B to correct the compound-induced fluorescence intensity values.

[4] = 0.5 U/ml enzyme, acetylthiocholine substrate, compound 0-200 μM, read-out: IC50 for AChE
[5] = 0.5 U/ml enzyme, butyrylthiocholine substrate, compound 0-200 μM, read-out: IC50 for BuChE
[6] = kynuramine substrate, potassium phosphate buffer pH 7.4, compound 0-200 μM, read-out: IC50 for MAOB

Acetylcholinesterase (AChE), sequence (P22303 32-614, species assumed): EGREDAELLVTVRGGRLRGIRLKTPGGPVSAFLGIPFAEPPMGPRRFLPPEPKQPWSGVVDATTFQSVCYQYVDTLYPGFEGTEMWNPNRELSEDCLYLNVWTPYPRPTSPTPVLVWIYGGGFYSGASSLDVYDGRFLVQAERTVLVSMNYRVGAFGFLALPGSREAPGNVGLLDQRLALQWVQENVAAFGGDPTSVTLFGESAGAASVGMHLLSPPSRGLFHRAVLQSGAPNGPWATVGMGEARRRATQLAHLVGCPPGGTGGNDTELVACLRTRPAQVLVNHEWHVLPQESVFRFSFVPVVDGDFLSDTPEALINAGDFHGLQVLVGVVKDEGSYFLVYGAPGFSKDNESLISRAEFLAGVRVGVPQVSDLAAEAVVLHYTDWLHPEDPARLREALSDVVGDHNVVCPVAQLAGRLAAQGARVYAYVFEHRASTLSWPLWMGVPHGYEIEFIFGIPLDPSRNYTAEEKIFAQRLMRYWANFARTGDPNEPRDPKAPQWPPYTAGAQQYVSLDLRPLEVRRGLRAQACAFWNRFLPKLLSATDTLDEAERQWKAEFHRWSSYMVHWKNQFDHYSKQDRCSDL

Structure (SMILES): C=C(C)[C@@H]1CCC(C)=C[C@H]1c1c(C)cc(O)cc1O [compound 1c, (1′R,2′R)-5′,6-dimethyl-2′-(prop-1-en-2-yl)-1′,2′,3′,4′-tetrahydro-[1, 1′-biphenyl]-2,4-diol]
- IC50 [1]: 2.6 µM
- IC50 [2]: 1.7 µM
- IC50 [3]: 24.8 µM

Structure (SMILES): C=C(C)[C@@H]1CCC(C)=C[C@H]1c1ccc(O)c(C(=O)O)c1O [compound 1n, (1′R,2′R)-2,4-dihydroxy-5′-methyl-2′-(prop-1-en-2-yl)-1′,2′,3′,4′-tetrahydro-[1, 1′-biphenyl]-3-carboxylic acid]
- IC50 [1, 4]: 10.6 µM
- IC50 [2, 5]: 13.3 µM
- IC50 [3, 6]: 30.7 µM

Structure (SMILES): C=C(C)[C@@H]1CCC(C)=C[C@H]1c1c(O)cc(O)cc1CCC [compound 1b, (1′R,2′R)-5′-methyl-2′-(prop-1-en-2-yl)-6-propyl-1′,2′,3′,4′-tetrahydro-[1, 1′-biphenyl]-2,4-diol]
- IC50 [1]: 58.2 µM
- IC50 [2]: 4 µM
- IC50 [3]: 31.5 µM

Structure (SMILES): C=C(C)[C@@H]1CCC(C)=C[C@H]1c1c(O)cc(O)cc1CCc1ccccc1 [compound 1d, (1′R,2′R)-5′-methyl-6-phenethyl-2′-(prop-1-en-2-yl)-1′,2′,3′,4′-tetrahydro-[1, 1′-biphenyl]-2,4-diol]
- IC50 [1]: 3.3 µM
- IC50 [2]: 2.6 µM

Structure (SMILES): C=C(C)[C@@H]1CCC(C)=C[C@H]1c1ccc(O)c(Br)c1O [compound 1m, (1′R,2′R)-3-bromo-5′-methyl-2′-(prop-1-en-2-yl)-1′,2′,3′,4′-tetrahydro-[1, 1′-biphenyl]-2,4-diol]
- IC50 [1]: 42.6 µM
- IC50 [2, 5]: 44.6 µM
- IC50 [3, 6]: 118 µM

Structure (SMILES): C=C(C)[C@@H]1CCC(C)=C[C@H]1c1c(O)cc(O)cc1C(C)=O [compound 1p, 1-((1′R,2′R)-4,6-dihydroxy-5′-methyl-2′-(prop-1-en-2-yl)-1′,2′,3′,4′-tetrahydro-[1, 1′-biphenyl]-2-yl) ethan-1-one]
- IC50 [1, 4]: 4.6 µM
- IC50 [2, 5]: 2 µM
- IC50 [3, 6]: 2.1 µM

Structure (SMILES): C=C(C)[C@@H]1CCC(C)=C[C@H]1c1c(O)cc(O)cc1C#N [compound 1g, (1′R,2′R)-4,6-dihydroxy-5′-methyl-2′-(prop-1-en-2-yl)-1′,2′,3′,4′-tetrahydro-[1, 1′-biphenyl]-2-carbonitrile]
- IC50 [1]: 74 µM
- IC50 [2, 5]: 8.6 µM
- IC50 [3, 6]: 61.1 µM

Structure (SMILES): C=C(C)[C@@H]1CCC(C)=C[C@H]1c1cc(Cl)c(O)cc1O [compound 1f, (1′R,2′R)-5-chloro-5′-methyl-2′-(prop-1-en-2-yl)-1′,2′,3′,4′-tetrahydro-[1, 1′-biphenyl]-2,4-diol]
- IC50 [1]: 20 µM
- IC50 [2, 5]: 19.3 µM
- IC50 [3, 6]: 29.9 µM

Structure (SMILES): C=C(C)[C@@H]1CCC(C)=C[C@H]1c1cc(C(=O)NCCc2ccc(OC)cc2)c(O)cc1O [compound 1o, (1′R,2′R)-4,6-dihydroxy-N-(4-methoxyphenethyl)-5′-methyl-2′-(prop-1-en-2-yl)-1′, 2′,3′,4′-tetrahydro-[1,1′-biphenyl]-3-carboxamide]
- IC50 [1, 4]: 15.3 µM
- IC50 [2, 5]: 27.3 µM
- IC50 [3, 6]: 56.1 µM

Structure (SMILES): C=C(C)[C@@H]1CCC(C)=C[C@H]1c1c(O)cc(O)cc1CCCCC [compound 1a, (1′R,2′R)-5′-methyl-6-pentyl-2′-(prop-1-en-2-yl)-1′,2′,3′,4′-tetrahydro-[1, 1′-biphenyl]-2,4-diol]
- IC50 [1]: 3.1 µM
- IC50 [2]: 1.7 µM
- IC50 [3]: 44 µM

Structure (SMILES): C=C(C)[C@@H]1CCC(C)=C[C@H]1c1c(O)cc(O)cc1Br [compound 1e, (1′R,2′R)-6-bromo-5′-methyl-2′-(prop-1-en-2-yl)-1′,2′,3′,4′-tetrahydro-[1,1′-biphenyl]-2,4-diol]
- IC50 [1]: 20 µM
- IC50 [2, 5]: 9.3 µM
- IC50 [3, 6]: 26.2 µM

Structure (SMILES): C=C(C)[C@@H]1CCC(C)=C[C@H]1c1ccc(O)c(C(C)=O)c1O [compound 1i, 1-((1′R,2′R)-2,4-dihydroxy-5′-methyl-2′-(prop-1-en-2-yl)-1′,2′,3′,4′-tetrahydro-[1, 1′-biphenyl]-3-yl)ethan-1-one]
- IC50 [1, 4]: 6.6 µM
- IC50 [2, 5]: 7.3 µM
- IC50 [3, 6]: 16.4 µM

Structure (SMILES): C=C(C)[C@@H]1CCC(C)=C[C@H]1c1cc(C(=O)NCCc2ccc(O)cc2)c(O)cc1O [compound 1q, (1′R,2′R)-4,6-dihydroxy-N-(4-hydroxyphenethyl)-5′-methyl-2′-(prop-1-en-2-yl)-1′, 2′,3′,4′-tetrahydro-[1,1′-biphenyl]-3-carboxamide]
- IC50 [1]: 7.3 µM
- IC50 [2, 5]: 3.3 µM
- IC50 [3, 6]: 18.1 µM

Structure (SMILES): C=C(C)[C@H]1CCC(C)=C[C@@H]1c1c(O)cc(OC)c([C@@H]2C=C(C)CC[C@H]2C(=C)C)c1O [compound 1k, (1R,1″S,2R,2″S)-6′-methoxy-5,5″-dimethyl-2,2″-di(prop-1-en-2-yl)-1, 1″,2,2″,3,3″,4,4″-octahydro-[1,1′:3′,1″-terphenyl]-2′,4′-diol]
- IC50 [1, 4]: 5.3 µM

Structure (SMILES): C=C(C)[C@@H]1CCC(C)=C[C@H]1c1c(O)c(C(C)=O)c(O)c([C@@H]2C=C(C)CC[C@H]2C(=C)C)c1O [compound 1j, 1-((1R,1″R,2R,2″R)-2′,4′,6′-trihydroxy-5,5″-dimethyl-2,2″-di (prop-1-en-2-yl)-1,1″,2,2″,3,3″,4,4″-octahydro-[1,1′:3′,1″-terphenyl]-5′-yl)ethan-1-one]
- IC50 [1, 4]: 2 µM
- IC50 [2, 5]: 30.6 µM
- IC50 [3, 6]: 142 µM

Structure (SMILES): C=C(C)[C@@H]1CCC(C)=C[C@H]1c1c(O)cc(O)cc1OC [compound 1h, (1′R,2′R)-6-methoxy-5′-methyl-2′-(prop-1-en-2-yl)-1′,2′,3′,4′-tetrahydro-[1, 1′-biphenyl]-2,4-diol]
- IC50 [1, 4]: 78 µM
- IC50 [2, 5]: 55.3 µM
- IC50 [3, 6]: 35.8 µM

Structure (SMILES): C=C(C)[C@@H]1CCC(C)=C[C@H]1c1c(O)cc(O)c(C(C)=O)c1O [compound 1l, 1-((1′R,2′R)-2,4,6-trihydroxy-5′-methyl-2′-(prop-1-en-2-yl)-1′,2′,3′,4′-tetrahydro-[1,1′-biphenyl]-3-yl)ethan-1-one]
- IC50 [1, 4]: 23.3 µM
- IC50 [2, 5]: 6.6 µM
- IC50 [3, 6]: 7.99 µM
